# In patent publication US20240368150A1 (Hoffmann-La Roche Inc., priority 2021, published 2024):
# Like-named read-outs stand apart in the source and are kept apart here.
# Key:
# primary human T-cells [1] = tested on: primary human T-cells
# primary human T-cells [2] = experiment: Proliferation assay after 5 days (CellTiter-Glo, CD3 stimulation; PBS counter screen); format: cell-based; settings: Homo sapiens, T-cell, 120 h, CD3 stimulation; for Emax: 5 days, normalized to reference compound A1 as stimulator control = 100%, DMSO neutral control, read-out: Emax proliferation (% activation); for EC50: primary human T-cells, CellTiter-Glo after 5 days, EC50 of fitted sigmoidal curve, read-out: Tcell Proliferation CD3 EC50
# Method in brief: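 Cpds added to medium-only plates; 5 d culture. Readout CellTiter-Glo 2.0 (equal vol), RT 45 min equilibration, 15 min rocking RT, luminescence. ATP signal taken as cell number.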
EC50 (primary human T-cells [1]),Compound,Emax (primary human T-cells [2]),EC50 (primary human T-cells [2])
1670 nM,CC(C)(N)c1nnc(-c2cc3c(cc2F)S(=O)(=O)C[C@H](N)C(=O)N3Cc2ccc(Cl)cc2)o1 [Example 69],171%,4770 nM
74.6 nM,"CC(C)(F)c1nnc(-c2cc3c(cc2F)S(=O)(=O)C[C@H](N)C(=O)N3Cc2ccc(Cl)cc2)o1 [Example 70, (3R)-3-Amino-5-[(4-chlorophenyl)methyl]-8-fluoro-7-[5-(1-fluoro-1-methyl-ethyl)-1,3,4-oxadiazol-2-yl]-1,1-dioxo-2,3-dihydro-1λ^6,5-benzothiazepin-4-one]",255%,214 nM
> 20000 nM,"N[C@H]1CS(=O)(=O)c2cc(F)c(-c3nnc(CC(F)F)o3)cc2N(Cc2ccc(Cl)cc2)C1=O [Example 71, (3R)-3-Amino-5-[(4-chlorophenyl)methyl]-7-[5-(2,2-difluoroethyl)-1,3,4-oxadiazol-2-yl]-8-fluoro-1,1-dioxo-2,3-dihydro-1λ^6,5-benzothiazepin-4-one]",71%,< 162 nM
50.2 nM,"N[C@H]1CS(=O)(=O)c2cc(F)c(-c3nnc(C4CCC(F)(F)CC4)o3)cc2N(Cc2ccc(Cl)cc2)C1=O [Example 73, (3R)-3-Amino-5-[(4-chlorophenyl)methyl]-7-[5-(4,4-difluorocyclohexyl)-1,3,4-oxadiazol-2-yl]-8-fluoro-1,1-dioxo-2,3-dihydro-1λ^6,5-benzothiazepin-4-one]",194%,126 nM
114 nM,"N[C@H]1CS(=O)(=O)c2cc(F)c(-c3nnc(C4CCC(F)(F)C4)o3)cc2N(Cc2ccc(Cl)cc2)C1=O (stereo partly drawn) [Example 75, (3R)-3-Amino-5-[(4-chlorophenyl)methyl]-7-[5-(3,3-difluorocyclopentyl)-1,3,4-oxadiazol-2-yl]-8-fluoro-1,1-dioxo-2,3-dihydro-1λ^6,5-benzothiazepin-4-one]",161%,35.1 nM
749 nM,"N[C@H]1CS(=O)(=O)c2cc(F)c(-c3nnc(C4CCCC4(F)F)o3)cc2N(Cc2ccc(Cl)cc2)C1=O (stereo partly drawn) [Example 76, (3R)-3-Amino-5-[(4-chlorophenyl)methyl]-7-[5-(2,2-difluorocyclopentyl)-1,3,4-oxadiazol-2-yl]-8-fluoro-1,1-dioxo-2,3-dihydro-1λ^6,5-benzothiazepin-4-one]",173%,1080 nM
341 nM,"N[C@H]1CS(=O)(=O)c2cc(F)c(-c3nnc(CC4CC(F)(F)C4)o3)cc2N(Cc2ccc(Cl)cc2)C1=O [Example 77, (3R)-3-Amino-5-[(4-chlorophenyl)methyl]-7-[5-[(3,3-difluorocyclobutyl)methyl]-1,3,4-oxadiazol-2-yl]-8-fluoro-1,1-dioxo-2,3-dihydro-1λ^6,5-benzothiazepin-4-one]",183%,
2350 nM,"N[C@H]1CS(=O)(=O)c2cc(F)c(-c3nnc(CC4CCOCC4)o3)cc2N(Cc2ccc(Cl)cc2)C1=O [Example 78, (3R)-3-Amino-5-[(4-chlorophenyl)methyl]-8-fluoro-1,1-dioxo-7-[5-(tetrahydropyran-4-ylmethyl)-1,3,4-oxadiazol-2-yl]-2,3-dihydro-1λ^6,5-benzothiazepin-4-one]",86%,1110 nM
176 nM,"N[C@H]1CS(=O)(=O)c2cc(F)c(-c3nnc(C4CC(F)(F)C4)o3)cc2N(Cc2ccc(Cl)cc2)C1=O [Example 80, (3R)-3-Amino-5-[(4-chlorophenyl)methyl]-7-[5-(3,3-difluorocyclobutyl)-1,3,4-oxadiazol-2-yl]-8-fluoro-1,1-dioxo-2,3-dihydro-1λ^6,5-benzothiazepin-4-one]",278%,81.5 nM
1270 nM,"N[C@H]1CS(=O)(=O)c2cc(F)c(-c3nnc(C4CCC4(F)F)o3)cc2N(Cc2ccc(Cl)cc2)C1=O (stereo partly drawn) [Example 81, (3R)-3-Amino-5-[(4-chlorophenyl)methyl]-7-[5-(2,2-difluorocyclobutyl)-1,3,4-oxadiazol-2-yl]-8-fluoro-1,1-dioxo-2,3-dihydro-1λ^6,5-benzothiazepin-4-one]",185%,521 nM
631 nM,"N[C@H]1CS(=O)(=O)c2cc(F)c(-c3nnc(C4CCOCC4)o3)cc2N(Cc2ccc(Cl)cc2)C1=O [Example 82, (3R)-3-Amino-5-[(4-chlorophenyl)methyl]-8-fluoro-1,1-dioxo-7-(5-tetrahydropyran-4-yl-1,3,4-oxadiazol-2-yl)-2,3-dihydro-1λ^6,5-benzothiazepin-4-one]",148%,728 nM
470 nM,"N[C@H]1CS(=O)(=O)c2cc(F)c(-c3nnc(CCF)o3)cc2N(Cc2ccc(Cl)cc2)C1=O [Example 83, (3R)-3-Amino-5-[(4-chlorophenyl)methyl]-8-fluoro-7-[5-(2-fluoroethyl)-1,3,4-oxadiazol-2-yl]-1,1-dioxo-2,3-dihydro-1λ^6,5-benzothiazepin-4-one]",27%,> 20000 nM
450 nM,"CC(C)c1nnc(-c2cc3c(cc2F)S(=O)(=O)C[C@H](N)C(=O)N3Cc2ccc(Cl)cc2)o1 [Example 84, (3R)-3-Amino-5-[(4-chlorophenyl)methyl]-8-fluoro-7-(5-isopropyl-1,3,4-oxadiazol-2-yl)-1,1-dioxo-2,3-dihydro-1λ^6,5-benzothiazepin-4-one]",191%,226 nM
470 nM,"N[C@H]1CS(=O)(=O)c2cc(F)c(-c3nnc(C4CC4)o3)cc2N(Cc2ccc(Cl)cc2)C1=O [Example 85, (3R)-3-Amino-5-[(4-chlorophenyl)methyl]-7-(5-cyclopropyl-1,3,4-oxadiazol-2-yl)-8-fluoro-1,1-dioxo-2,3-dihydro-1λ^6,5-benzothiazepin-4-one]",100%,237 nM
1530 nM,"CN(C)C(=O)c1nnc(-c2cc3c(cc2F)S(=O)(=O)C[C@H](N)C(=O)N3Cc2ccc(Cl)cc2)o1 [Example 87, N,N-dimethyl-5-[(3R)-3-amino-5-[(4-chlorophenyl)methyl]-8-fluoro-1,1,4-trioxo-2,3-dihydro-1λ^6,5-benzothiazepin-7-yl]-1,3,4-oxadiazole-2-carboxamide]",82%,2740 nM
689 nM,"CC1(c2nnc(-c3cc4c(cc3F)S(=O)(=O)C[C@H](N)C(=O)N4Cc3ccc(Cl)cc3)o2)CCCO1 (stereo partly drawn) [Example 88, (3R)-3-amino-5-[(4-chlorophenyl)methyl]-8-fluoro-7-[5-(2-methyltetrahydrofuran-2-yl)-1,3,4-oxadiazol-2-yl]-1,1-dioxo-2,3-dihydro-1λ^6,5-benzothiazepin-4-o]",97%,242 nM
117 nM,"CC(C)OCc1nnc(-c2cc3c(cc2F)S(=O)(=O)C[C@H](N)C(=O)N3Cc2ccc(Cl)cc2)o1 [Example 89, (3R)-3-amino-5-[(4-chlorophenyl)methyl]-8-fluoro-7-[5-(isopropoxymethyl)-1,3,4-oxadiazol-2-yl]-1,1-dioxo-2,3-dihydro-1λ^6,5-benzothiazepin-4-one]",104%,615 nM
819 nM,"CC(C)(C)NC(=O)c1nnc(-c2cc3c(cc2F)S(=O)(=O)C[C@H](N)C(=O)N3Cc2ccc(Cl)cc2)o1 [Example 90, N-tert-butyl-5-[(3R)-3-amino-5-[(4-chlorophenyl)methyl]-8-fluoro-1,1,4-trioxo-2,3-dihydro-1λ^6,5-benzothiazepin-7-yl]-1,3,4-oxadiazole-2-carboxamide]",96%,2340 nM
145 nM,"CC1(c2nnc(-c3cc4c(cc3F)S(=O)(=O)C[C@H](N)C(=O)N4Cc3ccc(Cl)cc3)o2)CCOCC1 [Example 92, (3R)-3-amino-5-[(4-chlorophenyl)methyl]-8-fluoro-7-[5-(4-methyltetrahydropyran-4-yl)-1,3,4-oxadiazol-2-yl]-1,1-dioxo-2,3-dihydro-1λ^6,5-benzothiazepin-4-one]",141%,196 nM
660 nM,"N[C@H]1CS(=O)(=O)c2cc(F)c(-c3nnc(C(=O)N4CCCC(F)(F)C4)o3)cc2N(Cc2ccc(Cl)cc2)C1=O [Example 93, (3R)-3-amino-5-[(4-chlorophenyl)methyl]-7-[5-(3,3-difluoropiperidine-1-carbonyl)-1,3,4-oxadiazol-2-yl]-8-fluoro-1,1-dioxo-2,3-dihydro-1λ^6,5-benzothiazepin-4-one]",100%,1750 nM
161 nM,"N[C@H]1CS(=O)(=O)c2cc(F)c(-c3nnc(C4CC5(C4)CC(F)(F)C5)o3)cc2N(Cc2ccc(Cl)cc2)C1=O [Example 94, (3R)-3-amino-5-[(4-chlorophenyl)methyl]-7-[5-(2,2-difluorospiro[3.3]heptan-6-yl)-1,3,4-oxadiazol-2-yl]-8-fluoro-1,1-dioxo-2,3-dihydro-1λ^6,5-benzothiazepin-4-one]",85%,18.1 nM
5360 nM,"CS(=O)(=O)CCc1nnc(-c2cc3c(cc2F)S(=O)(=O)C[C@H](N)C(=O)N3Cc2ccc(Cl)cc2)o1 [Example 95, (3R)-3-amino-5-[(4-chlorophenyl)methyl]-8-fluoro-7-[5-(2-methylsulfonylethyl)-1,3,4-oxadiazol-2-yl]-1,1-dioxo-2,3-dihydro-1λ^6,5-benzothiazepin-4-one]",67%,6160 nM

Compound,EC50 (primary human T-cells [1]),Emax (primary human T-cells [2]),EC50 (primary human T-cells [2])
"N[C@H]1CS(=O)(=O)c2cc(F)c(-c3nnc(C(=O)N4[C@@H]5CCC[C@H]4CC5)o3)cc2N(Cc2ccc(Cl)cc2)C1=O [Example 96, (3R)-3-amino-5-[(4-chlorophenyl)methyl]-8-fluoro-1,1-dioxo-7-[5-[(1R,5S)-8-azabicyclo[3.2.1]octane-8-carbonyl]-1,3,4-oxadiazol-2-yl]-2,3-dihydro-1λ^6,5-benzothiazepin-4-one]",604 nM,46%,> 2730 nM
